These results are taken from patent US8198274B2, “Substituted indolyl and indazolyl derivatives and uses thereof” (Roche Palo Alto LLC, priority 2008, dated 2012).

In assay [1] the target is T1, human dopamine transporter (hDAT) (Homo sapiens, UniProt Q01959).
T1 construct: expressed in transfected cells
Put plainly: Screening for compounds active at human dopamine transporter (hDAT), scintillation proximity assay, competition with [3H]-Vanoxerine. The settings on record: HEK-293 cells, SPA. It counts as binding. The protocol:
This assay was used to determine the affinity of ligands for the dopamine transporter by competition with [^3H]-Vanoxerine.
HEK-293 cells (Tatsumi et al., Eur. J. Pharmacol. 1997, 30, 249-258) stably expressing recombinant hDAT were maintained with media (DMEM hi glucose with 10% FBS, 300 μg/ml G418 and 2 mM L-Glutamine) and incubated at 37° C. with 5% CO2. Cells were plated four hours prior to experiment by placing approximately 30,000 cells per well (in PBS) on white, opaque Cell-Tak coated 96 well plates. Extra buffer was apriated from the cell plates using an ELx405 plate washer.
^3[H] vanoxerine (GBR 12909) radioligand, specific activity approximately 59 Ci/mmol, stock concentration, 400 nM, and 50 mM Tris-HCl, 300 mM NaCl, (pH 7.4) buffers were used for Scintillation Proximity Assay IC50/Ki determination. […]
The % inhibition was calculated for each compound tested [(Compound CPM at maximum concentration-Non-Specific CPM)/Total CPM*100]. […]
[formula] where max=total binding, min=non specific binding, x=concentration (M) of the tested compound and n=Hill slope. The inhibition dissociation constant (Ki) of each compound was determined according to the method of Cheng-Prusoff and then converted into negative logarithm (pKi) of the Ki.
In general terms: Scintillation proximity formats need no separation of bound from free tracer.

Assay [2] deals with T2, human norepinephrine transporter (hNET) (Homo sapiens, UniProt P23975).
T2 construct: expressed in transfected cells
Put plainly: Screening for compounds active at human norepinephrine transporter (hNET), scintillation proximity assay, competition with [3H]-Nisoxetine. In kind it is binding. The settings on record: membranes of HEK-293 cells, SPA. The protocol:
This assay was used to determine the affinity of ligands for the hNET transporter by competition with [^3H]-Nisoxetine. As in the hSERT assay of the above example, receptor-containing membranes were pre-coupled to the SPA beads and the binding of the appropriate radioligand to the transporter was measured. The light emission was proportional to the amount of bound radioligand, with unbound radioligand producing no signal.
HEK-293 cells (Tatsumi et al., Eur. J. Pharmacol. 1997, 30, 249-258) stably expressing recombinant hNET (Clone: HEK-hNET #2) were maintained with media (DMEM hi glucose with 10% FBS, 300 μg/ml G418 and 2 mM L-Glutamine) and incubated at 37° C. with 5% CO2. Cells were released from culture flasks using PBS for 1-2 minutes. […]
Cell membranes were prepared using a membrane preparation buffer of 50 mM TRIS (pH 7.4). […] After a second centrifugation, the pellet was re-homogenized and brought to a final volume determined during the assay. […]
^3[H] […] The mixtures were allowed to stand at room temperature for one hour, and were then counted on a Packard TopCount LCS, a generic SPA counting protocol settings (Energy Range: Low, Efficiency Mode: Normal, Region A: 1.50-35.00, Region B: 1.50-256.00, Count Time (min.): 0.40, Background Subtract: none, Half-Life Correction: no, Quench Indicator: tSIS, Platemap blank subtraction: No, Cross talk reduction: Off). […]

T2 sequence (P23975 whole entry): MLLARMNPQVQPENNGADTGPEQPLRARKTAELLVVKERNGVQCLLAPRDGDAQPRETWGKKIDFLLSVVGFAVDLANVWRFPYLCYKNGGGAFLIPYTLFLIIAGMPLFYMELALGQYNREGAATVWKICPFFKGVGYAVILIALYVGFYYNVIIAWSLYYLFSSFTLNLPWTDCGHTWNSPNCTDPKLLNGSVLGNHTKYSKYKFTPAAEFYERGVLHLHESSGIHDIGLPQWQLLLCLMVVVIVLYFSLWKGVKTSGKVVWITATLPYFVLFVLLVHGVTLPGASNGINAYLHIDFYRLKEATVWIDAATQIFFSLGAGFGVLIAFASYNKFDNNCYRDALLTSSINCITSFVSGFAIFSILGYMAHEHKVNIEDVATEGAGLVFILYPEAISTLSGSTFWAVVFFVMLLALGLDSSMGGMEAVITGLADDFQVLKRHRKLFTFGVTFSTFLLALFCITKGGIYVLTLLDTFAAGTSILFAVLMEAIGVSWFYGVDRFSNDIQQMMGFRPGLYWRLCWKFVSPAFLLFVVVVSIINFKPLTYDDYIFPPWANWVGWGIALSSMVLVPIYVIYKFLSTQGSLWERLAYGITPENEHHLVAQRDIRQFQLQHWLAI
T1 sequence (Q01959 whole entry): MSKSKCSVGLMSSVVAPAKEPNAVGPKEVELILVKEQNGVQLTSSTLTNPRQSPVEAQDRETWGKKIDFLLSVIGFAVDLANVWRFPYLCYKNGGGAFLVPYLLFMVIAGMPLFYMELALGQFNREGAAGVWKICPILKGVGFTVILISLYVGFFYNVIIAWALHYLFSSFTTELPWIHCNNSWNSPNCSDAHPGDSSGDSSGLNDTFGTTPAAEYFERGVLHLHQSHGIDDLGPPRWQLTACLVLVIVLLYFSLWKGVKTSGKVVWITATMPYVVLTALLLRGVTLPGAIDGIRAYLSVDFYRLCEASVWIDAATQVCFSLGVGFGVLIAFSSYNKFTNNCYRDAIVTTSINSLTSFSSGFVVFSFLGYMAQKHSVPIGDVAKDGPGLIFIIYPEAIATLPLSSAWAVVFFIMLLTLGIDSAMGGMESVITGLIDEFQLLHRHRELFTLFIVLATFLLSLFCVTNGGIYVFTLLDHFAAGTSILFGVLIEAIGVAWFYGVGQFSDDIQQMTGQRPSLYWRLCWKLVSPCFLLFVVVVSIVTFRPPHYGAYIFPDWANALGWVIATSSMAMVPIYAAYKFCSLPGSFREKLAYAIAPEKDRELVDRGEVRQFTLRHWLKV

One may read the Ki as a measure of affinity in units of concentration, obtained from inhibition or displacement. Read a high Ki as a looser hold on the target. For `CNCc1ccccc1Cc1ccc2[nH]c(C(N)=O)cc2c1` [Compound 40, 5-(2-Methylaminomethyl-benzyl)-1H-indole-2-carboxylic acid amide], the values for the Ki in assay [1] and in assay [2] were approximately 5.01 nM and approximately 3.98 nM, respectively.
